# According to patent publication US4012284A (Societa' Farmaceutici Italia, S.p.A., priority 1962, dated 1977):
# Tested on: Walker carcinosarcoma
# Assay: Walker carcinosarcoma in rats (Table VIII)
# Assay type: in vivo, rat
# Settings: for % Inhibition (tumor growth) / Average tumor weight / Mortality / Body weight change, not [net] / Body weight change, gross: 8 times within 10 days; for % Inhibition (tumor growth) / Average tumor weight: 11th day; for Average tumor weight: controls 15.940; for Mortality: controls 1/10; for Body weight change, not [net]: controls +6.96; for Body weight change, gross: controls +22.9
# From the text: At least 20 animals per lot were used.
# The checking of the activity on solid tumors has been carried out with Ehrlich adenocarcinoma and sarcoma 180 in the mouse and with Walker carcinosarcoma and the Oberling-Guerin-Guerin myeloma in the rat.
# The rats grafted with this tumor have been treated intravenously 8 times within 10 days; at the 11th day of experiment, the surviving animals were killed and the tumors removed.
compound,measurement,setting,value
COc1cccc2c1C(=O)c1c(O)c3c(c(O)c1C2=O)C[C@@](O)(C(C)=O)C[C@@H]3O[C@H]1C[C@H](N)[C@H](O)[C@H](C)O1 [F.I. 1762],% Inhibition (tumor growth),1 mg/kg/day intravenously,42.1%
same,Average tumor weight,1 mg/kg/day intravenously,9.443 grams
same,Mortality,1 mg/kg/day intravenously,1/10
same,"Body weight change, not [net]",1 mg/kg/day intravenously,+0.76 grams
same,"Body weight change, gross",1 mg/kg/day intravenously,+10.2 grams
same,tolerance,2 mg/kg/day intravenously,tolerated
same,% Inhibition (tumor growth),2 mg/kg/day intravenously,66.1%
same,Average tumor weight,2 mg/kg/day intravenously,5.404 grams
same,Mortality,2 mg/kg/day intravenously,1/10
same,"Body weight change, not [net]",2 mg/kg/day intravenously,+22.25 grams
same,"Body weight change, gross",2 mg/kg/day intravenously,+27.9 grams
same,effect on this type of tumor,especially with 2 mg/kg/day intravenously,marked inhibitory effect
